Consider seven compounds from ChEMBL document CHEMBL5241079, “Inhibitors of BCL2A1/Bfl-1 protein: Potential stock in cancer therapy” (Eur J Med Chem, 2021).

The target in data set [1] is T1, Bcl-2-related protein A1 (Homo sapiens, UniProt Q16548).
T1 sequence (Q16548 whole entry): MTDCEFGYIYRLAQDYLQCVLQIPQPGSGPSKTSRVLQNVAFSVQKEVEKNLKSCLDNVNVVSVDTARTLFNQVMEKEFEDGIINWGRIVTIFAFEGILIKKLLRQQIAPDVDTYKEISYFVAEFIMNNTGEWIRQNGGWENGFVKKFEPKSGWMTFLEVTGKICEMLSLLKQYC
As to the kind of experiment: Inhibition of Bfl-1 (unknown origin) by fluorescence polarization assay. A general note: Fluorescence polarisation rises when a labelled molecule tumbles more slowly, as on binding a larger partner.

Data set [2] addresses T1, Bcl-2-related protein A1. Description: Displacement of fluorescent-labeled BID-BH3 peptide from His-tagged BFL-1 (unknown origin).
Data set [3] in a line: Lipophilicity, logP of compound. The data set is classed as physicochemical. Particulars: octanol/water.
The target in data set [4] is T2, Bcl-2-like protein 11/Bcl-2-related protein A1 (Homo sapiens, UniProt O43521+Q16548). As to the kind of experiment: Inhibition of Bfl-1/Bim (unknown origin) assessed as inhibition constant by fluorescence polarization assay. The data set is classed as protein-complex assay.
The target of data set [5] is T2, Bcl-2-like protein 11/Bcl-2-related protein A1. Description: Inhibition of Bfl-1/Bim (unknown origin) by fluorescence polarization assay. The data set is classed as protein-complex assay.
Data set [6] shares this target. As to the kind of experiment: Inhibition of Bfl-1/Bim (unknown origin) incubated for 30 mins by TR-FRET assay. The data set is classed as protein-complex assay.
In data set [7] the target is Induced myeloid leukemia cell differentiation protein Mcl-1 (Homo sapiens) (UniProt Q07820). As to the kind of experiment: Displacement of fluorescein tagged BID BH3 peptide from GST-tagged recombinant Mcl-1 (unknown origin) by fluorescence polarization-based competitive binding assay.
The target of data set [8] is T3, Apoptosis regulator Bcl-2 (Homo sapiens, UniProt P10415). Description: Inhibition of Bcl-2 (unknown origin) by fluorescence polarization assay.
Data set [9] has as its target T3, Apoptosis regulator Bcl-2. As to the kind of experiment: Displacement of fluorescein tagged BID BH3 peptide from GST-tagged recombinant Bcl-2 (unknown origin) by fluorescence polarization-based competitive binding assay.

T3 sequence (P10415 whole entry): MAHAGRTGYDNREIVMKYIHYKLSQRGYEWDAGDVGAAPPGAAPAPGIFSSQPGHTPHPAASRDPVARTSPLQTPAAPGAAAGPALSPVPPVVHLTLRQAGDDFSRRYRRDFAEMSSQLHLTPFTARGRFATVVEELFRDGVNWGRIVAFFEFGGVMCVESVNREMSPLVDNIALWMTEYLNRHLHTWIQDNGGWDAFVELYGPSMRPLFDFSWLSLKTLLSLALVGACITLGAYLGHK
T2 sequence (O43521 whole entry, one chain of several): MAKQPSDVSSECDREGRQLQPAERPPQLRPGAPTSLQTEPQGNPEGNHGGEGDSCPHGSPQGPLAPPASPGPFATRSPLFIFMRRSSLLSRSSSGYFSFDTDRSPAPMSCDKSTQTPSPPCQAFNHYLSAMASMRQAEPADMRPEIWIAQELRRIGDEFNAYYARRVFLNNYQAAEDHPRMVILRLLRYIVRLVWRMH
Chain of Induced myeloid leukemia cell differentiation protein Mcl-1 (Homo sapiens) (Q07820 whole entry): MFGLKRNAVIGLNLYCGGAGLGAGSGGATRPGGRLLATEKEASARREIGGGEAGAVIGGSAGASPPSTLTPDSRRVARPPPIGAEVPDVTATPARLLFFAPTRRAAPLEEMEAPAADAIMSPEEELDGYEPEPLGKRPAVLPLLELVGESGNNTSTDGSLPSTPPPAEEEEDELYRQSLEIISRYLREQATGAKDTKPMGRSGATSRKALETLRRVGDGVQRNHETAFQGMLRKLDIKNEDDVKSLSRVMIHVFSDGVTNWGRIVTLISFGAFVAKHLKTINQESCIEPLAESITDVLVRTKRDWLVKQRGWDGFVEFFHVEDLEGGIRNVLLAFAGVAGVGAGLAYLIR

Take `O=C1NC(=S)N(c2cccc(Br)c2)C(=O)/C1=C/C=C/c1ccccc1`: the IC50 on Bcl-2-related protein A1 [1] is 1.6 µM.
Same read-out and setting: then `CCOc1ccc(N2C(=O)/C(=C/C=C/c3ccccc3)C(=O)NC2=S)cc1`, with 1.3 µM.
Consider `CC(=O)N[C@@H](Cc1c[nH]c2ccccc12)C(=O)NCCSSCCN(C)C`, for which the EC50 on Bcl-2-related protein A1 [2] worked out at 0.023 µM.
Take `COc1ccc(C(c2c(-c3ccccc3)n(O)c3ccccc23)N2CCN(C)CC2)cc1` (stereo not given): in data set [3], the logP was 4. Further, the Ki in [4] was determined as 0.4 µM. In addition, the IC50 in data set [5] was 0.8 µM; in data set [6] it was 1.4 µM.
For the compound `CC(C)=CCC[C@]1(C)C=Cc2c(O)c3c(c(CC=C(C)C)c2O1)O[C@]12C(=C[C@@H]4C[C@H]1C(C)(C)O[C@@]2(C/C=C(/C)C(=O)O)C4=O)C3=O` [GAMBOGIC ACID], the values for the IC5 in data set [7] and in [9] were 0.79 µM and 1.21 µM, respectively. The compound further returned an IC50 in data set [8] of 0.122 µM.
`CSc1ccc(C(Nc2ccccn2)c2c(C)[nH]c3ccccc23)cc1` (stereo not given) yielded a logP in data set [3] of 4. Further, the Ki in data set [4] amounted to 2.9 µM. Also, the IC50 in data set [5] stood at 6.3 µM; in data set [6] it was 2.5 µM.
On to `CC1=C(C2=C(C)C(=O)c3c(cc(O)c(O)c3Cc3ccccc3)C2=O)C(=O)c2cc(O)c(O)c(Cc3ccccc3)c2C1=O`, for which inhibition in data set [8] was half-maximal at 1.3 µM (IC50).

The IC50 is the concentration that gives 50% inhibition. What is called EC50 is the concentration needed to bring the measured effect to its halfway point. Low values mean an effect from little substance, high ones a need for much substance. One may read the logP as a log measure of how a compound divides between an organic and an aqueous phase. A low value points to lower lipophilicity. One may read the Ki as a measure of affinity in units of concentration, obtained from inhibition or displacement.
